Assay [1] deals with T1, yeast NADPH-cytochrome P450 reductase (yCPR) (Saccharomyces cerevisiae, UniProt P16603).
T1 sequence (P16603 34-691): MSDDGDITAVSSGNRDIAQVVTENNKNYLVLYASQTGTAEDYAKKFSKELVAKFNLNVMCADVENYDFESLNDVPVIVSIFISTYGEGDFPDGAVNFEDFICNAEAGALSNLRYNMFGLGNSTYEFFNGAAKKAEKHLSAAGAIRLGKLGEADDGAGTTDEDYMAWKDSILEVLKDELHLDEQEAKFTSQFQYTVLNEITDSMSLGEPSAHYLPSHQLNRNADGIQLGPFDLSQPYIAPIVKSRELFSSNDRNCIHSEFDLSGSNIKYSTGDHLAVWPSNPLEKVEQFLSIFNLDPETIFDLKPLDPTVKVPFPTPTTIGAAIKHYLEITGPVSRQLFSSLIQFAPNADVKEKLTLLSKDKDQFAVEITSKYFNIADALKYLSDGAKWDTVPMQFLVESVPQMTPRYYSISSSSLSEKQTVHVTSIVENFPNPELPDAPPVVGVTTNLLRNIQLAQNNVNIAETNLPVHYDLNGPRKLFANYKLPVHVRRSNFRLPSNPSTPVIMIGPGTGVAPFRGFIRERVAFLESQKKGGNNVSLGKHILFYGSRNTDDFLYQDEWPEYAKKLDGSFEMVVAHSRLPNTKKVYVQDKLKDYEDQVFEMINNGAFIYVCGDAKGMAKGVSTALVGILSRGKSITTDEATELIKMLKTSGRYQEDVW
Put plainly: SPR. Format: binding.

For assay [2], the target named is T1, yeast NADPH-cytochrome P450 reductase (yCPR). Put plainly: SPR. Type of assay: binding. The source holds these as a separate data set.

Like-named read-outs stand apart in the source and are kept apart here.

The term Kd denotes the constant that tells how readily two partners part at equilibrium. Read a high Kd as lower affinity.

Compound `Cc1cc2nc3c(=O)[nH]c(=O)nc-3n(C[C@H](O)[C@H](O)[C@H](O)COP(=O)(O)O)c2cc1C` [compound 7, FMN] returned a Kd in assay [1] of 300 nM.

`Cc1cc2nc3c(=O)[nH]c(=O)nc-3n(C[C@H](O)[C@H](O)[C@H](O)COP(=O)(O)OP(=O)(O)OC[C@H]3O[C@@H](n4cnc5c(N)ncnc54)[C@H](O)[C@@H]3O)c2cc1C` [compound 8, FAD] yielded a Kd in assay [2] of 2300 nM.

The values are drawn from PMC2924936 (ACS chemical biology, 2010).
